How the values were obtained:
Assay type in all cases: biochemical
FGFR1 = FGFR1 (Homo sapiens (Human), UniProt P11362); test: FGFR enzymatic assay (FRET peptide phosphorylation), FGFR1; conditions: FGFR1 enzyme 0.02 nM, ATP 210 μM
Outline: (§1)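 Recombinant kinase was pre-incubated 5–10 min with serially diluted inhibitor in HEPES buffer (10 mM MgCl2, 5 mM DTT, pH 7.5; buffer described for FGFR3). Peptide phosphorylation ran 1 h at 25 °C and was detected by FRET after ~1 h equilibration. IC50 values come from variable-slope sigmoidal fits.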

FGFR2 = FGFR2 (Homo sapiens (Human), UniProt P21802); test: FGFR enzymatic assay (FRET peptide phosphorylation), FGFR2; conditions: FGFR2 enzyme 0.01 nM, ATP 100 μM
Chain of FGFR2 (P21802 22-821): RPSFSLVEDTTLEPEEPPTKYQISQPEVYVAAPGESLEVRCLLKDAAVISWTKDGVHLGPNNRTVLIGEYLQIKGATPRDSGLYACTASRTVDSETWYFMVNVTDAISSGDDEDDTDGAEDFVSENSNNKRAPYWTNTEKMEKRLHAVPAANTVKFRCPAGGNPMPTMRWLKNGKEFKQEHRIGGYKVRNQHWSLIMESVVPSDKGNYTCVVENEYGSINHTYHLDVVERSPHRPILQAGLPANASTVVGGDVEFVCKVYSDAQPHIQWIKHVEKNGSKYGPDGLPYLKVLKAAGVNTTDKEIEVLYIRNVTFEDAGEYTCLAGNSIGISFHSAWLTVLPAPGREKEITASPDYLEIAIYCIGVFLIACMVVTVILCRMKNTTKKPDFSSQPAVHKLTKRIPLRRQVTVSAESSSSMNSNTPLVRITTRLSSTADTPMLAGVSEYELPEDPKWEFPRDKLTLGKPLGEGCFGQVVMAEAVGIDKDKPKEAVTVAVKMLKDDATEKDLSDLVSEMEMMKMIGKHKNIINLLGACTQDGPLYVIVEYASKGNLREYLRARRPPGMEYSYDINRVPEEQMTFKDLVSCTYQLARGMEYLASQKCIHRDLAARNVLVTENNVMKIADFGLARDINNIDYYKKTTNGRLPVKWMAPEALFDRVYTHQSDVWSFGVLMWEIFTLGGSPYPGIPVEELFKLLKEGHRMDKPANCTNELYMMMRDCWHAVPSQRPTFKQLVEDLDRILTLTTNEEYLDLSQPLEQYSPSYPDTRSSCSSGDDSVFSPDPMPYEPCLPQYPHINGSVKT
Outline: as §1

FGFR3 = FGFR3 (Homo sapiens (Human), UniProt P22607); test: FGFR enzymatic assay (FRET peptide phosphorylation), FGFR3; conditions: FGFR3 enzyme (Millipore), ATP 140 μM
Chain of FGFR3 (P22607 23-806): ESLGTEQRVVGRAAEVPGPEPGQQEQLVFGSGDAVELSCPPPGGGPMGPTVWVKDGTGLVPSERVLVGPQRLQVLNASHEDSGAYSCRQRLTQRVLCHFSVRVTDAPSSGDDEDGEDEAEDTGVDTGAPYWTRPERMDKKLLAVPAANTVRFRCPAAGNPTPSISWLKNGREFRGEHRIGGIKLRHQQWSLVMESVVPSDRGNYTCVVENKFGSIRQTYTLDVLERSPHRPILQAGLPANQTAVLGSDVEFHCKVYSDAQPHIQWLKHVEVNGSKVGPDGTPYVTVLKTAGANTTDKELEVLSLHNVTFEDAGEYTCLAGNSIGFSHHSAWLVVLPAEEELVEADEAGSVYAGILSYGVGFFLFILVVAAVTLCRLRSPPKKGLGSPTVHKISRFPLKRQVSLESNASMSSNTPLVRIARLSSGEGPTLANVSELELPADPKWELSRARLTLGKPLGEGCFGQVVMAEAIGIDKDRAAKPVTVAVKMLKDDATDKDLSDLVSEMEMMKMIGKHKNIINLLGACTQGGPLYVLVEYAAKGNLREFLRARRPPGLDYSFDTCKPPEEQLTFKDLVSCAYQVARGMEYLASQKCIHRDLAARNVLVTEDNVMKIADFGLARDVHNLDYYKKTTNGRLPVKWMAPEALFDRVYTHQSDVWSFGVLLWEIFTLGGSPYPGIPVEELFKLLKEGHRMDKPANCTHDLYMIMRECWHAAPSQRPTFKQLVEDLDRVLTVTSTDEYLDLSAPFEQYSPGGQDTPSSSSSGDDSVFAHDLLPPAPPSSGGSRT
Outline: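 FRET assay of peptide phosphorylation by FGFR3 in HEPES pH 7.5 buffer with MgCl2, EGTA, Tween-20 and DTT. Enzyme was pre-incubated 5-10 min with compound, and the reaction ran 1 hr at 25° C. IC50 came from a variable-slope sigmoidal fit.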

Chain of FGFR1 (P11362 22-822): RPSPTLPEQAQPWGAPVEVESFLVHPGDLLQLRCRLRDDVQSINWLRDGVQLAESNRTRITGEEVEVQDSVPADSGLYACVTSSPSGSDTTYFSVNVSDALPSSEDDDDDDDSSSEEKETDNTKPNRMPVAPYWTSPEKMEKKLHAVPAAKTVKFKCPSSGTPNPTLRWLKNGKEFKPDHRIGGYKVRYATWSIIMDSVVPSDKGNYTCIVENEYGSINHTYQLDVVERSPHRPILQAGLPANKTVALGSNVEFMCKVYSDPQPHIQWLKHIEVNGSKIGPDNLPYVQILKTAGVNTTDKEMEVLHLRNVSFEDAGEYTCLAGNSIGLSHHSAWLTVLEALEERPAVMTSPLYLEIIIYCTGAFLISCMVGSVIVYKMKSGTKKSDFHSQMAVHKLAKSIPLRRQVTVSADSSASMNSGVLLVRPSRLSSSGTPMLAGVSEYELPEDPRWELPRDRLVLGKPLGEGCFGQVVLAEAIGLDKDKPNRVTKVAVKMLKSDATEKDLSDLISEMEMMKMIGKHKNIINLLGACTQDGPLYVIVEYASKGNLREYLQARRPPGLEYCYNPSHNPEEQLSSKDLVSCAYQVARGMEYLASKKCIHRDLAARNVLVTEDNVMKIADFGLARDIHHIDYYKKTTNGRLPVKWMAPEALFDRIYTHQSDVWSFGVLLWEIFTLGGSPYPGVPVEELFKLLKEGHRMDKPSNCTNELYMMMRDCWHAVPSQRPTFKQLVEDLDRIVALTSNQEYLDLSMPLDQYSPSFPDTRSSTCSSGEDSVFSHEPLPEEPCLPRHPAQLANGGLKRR

SMILES | IC50 (FGFR1) | IC50 (FGFR2) | IC50 (FGFR3)
COc1cc(OC)c(F)c(N2Cc3cnc4[nH]c(CN5CCC(F)(F)CC5)cc4c3N(C)C2=O)c1F [Example 112, 3-(2,6-difluoro-3,5-dimethoxyphenyl)-8-[(4,4-difluoropiperidin-1-yl)methyl]-1-methyl-1,3,4,7-tetrahydro-2H-pyrrolo[3′,2′:5,6]pyrido[4,3-d]pyrimidin-2-one] | < 100 nM | < 100 nM | < 100 nM
COc1cc(OC)c(F)c(N2Cc3cnc4[nH]c(CN5CCCC(F)(F)C5)cc4c3N(C)C2=O)c1F [Example 113, 3-(2,6-difluoro-3,5-dimethoxyphenyl)-8-[(3,3-difluoropiperidin-1-yl)methyl]-1-methyl-1,3,4,7-tetrahydro-2H-pyrrolo[3′,2′:5,6]pyrido[4,3-d]pyrimidin-2-one] | < 100 nM | < 100 nM | < 100 nM
COc1cc(OC)c(F)c(N2Cc3cnc4[nH]c(CCN5CCOCC5)cc4c3N(C)C2=O)c1F [Example 114, 3-(2,6-difluoro-3,5-dimethoxyphenyl)-1-methyl-8-(2-morpholin-4-ylethyl)-1,3,4,7-tetrahydro-2H-pyrrolo[3′,2′:5,6]pyrido[4,3-d]pyrimidin-2-one] | < 100 nM | < 100 nM | < 100 nM
COc1cc(OC)c(F)c(N2Cc3cnc4[nH]c(CCN5CCC5)cc4c3N(C)C2=O)c1F [Example 115, 8-(2-azetidin-1-ylethyl)-3-(2,6-difluoro-3,5-dimethoxyphenyl)-1-methyl-1,3,4,7-tetrahydro-2H-pyrrolo[3′,2′:5,6]pyrido[4,3-d]pyrimidin-2-one] | < 100 nM | < 100 nM | < 100 nM
COc1cc(OC)c(F)c(N2Cc3cnc4[nH]c(CCN5CCCC5)cc4c3N(C)C2=O)c1F [Example 116, 3-(2,6-difluoro-3,5-dimethoxyphenyl)-1-methyl-8-(2-pyrrolidin-1-ylethyl)-1,3,4,7-tetrahydro-2H-pyrrolo[3′,2′:5,6]pyrido[4,3-d]pyrimidin-2-one] | < 100 nM | < 100 nM | < 100 nM
COc1cc(OC)c(F)c(N2Cc3cnc4[nH]c(CCCN5CCOCC5)cc4c3N(C)C2=O)c1F [Example 117, 3-(2,6-difluoro-3,5-dimethoxyphenyl)-1-methyl-8-(3-morpholin-4-ylpropyl)-1,3,4,7-tetrahydro-2H-pyrrolo[3′,2′:5,6]pyrido[4,3-d]pyrimidin-2-one] | < 100 nM | < 100 nM | < 100 nM
COc1cc(OC)c(F)c(N2Cc3cnc4[nH]c(CCCN5CCN(C6CC6)CC5)cc4c3N(C)C2=O)c1F [Example 118, 8-[3-(4-cyclopropylpiperazin-1-yl)propyl]-3-(2,6-difluoro-3,5-dimethoxyphenyl)-1-methyl-1,3,4,7-tetrahydro-2H-pyrrolo[3′,2′:5,6]pyrido[4,3-d]pyrimidin-2-one] | < 100 nM | < 100 nM | < 100 nM
CCN1CCN(C(=O)c2cc3c4c(cnc3[nH]2)CN(c2c(F)c(OC)cc(OC)c2F)C(=O)N4C)CC1 [Example 119, 3-(2,6-difluoro-3,5-dimethoxyphenyl)-8-[(4-ethylpiperazin-1-yl)carbonyl]-1-methyl-1,3,4,7-tetrahydro-2H-pyrrolo[3′,2′:5,6]pyrido[4,3-d]pyrimidin-2-one] | < 100 nM | < 100 nM | < 100 nM
COc1cc(OC)c(F)c(N2Cc3cnc4[nH]c(C(=O)N5C[C@@H](C)N[C@@H](C)C5)cc4c3N(C)C2=O)c1F [Example 120, 3-(2,6-difluoro-3,5-dimethoxyphenyl)-8-{[(3R,5S)-3,5-dimethylpiperazin-1-yl]carbonyl}-1-methyl-1,3,4,7-tetrahydro-2H-pyrrolo[3′,2′:5,6]pyrido[4,3-d]pyrimidin-2-one] | < 100 nM | < 100 nM | < 100 nM
CCN1C(=O)N(c2c(F)c(OC)cc(OC)c2F)Cc2cnc3[nH]ccc3c21 [Example 121, 3-(2,6-Difluoro-3,5-dimethoxyphenyl)-1-ethyl-1,3,4,7-tetrahydro-2H-pyrrolo[3′,2′:5,6]pyrido[4,3-d]pyrimidin-2-one] | < 100 nM | < 100 nM | < 100 nM
COc1cc(OC)c(F)c(N2Cc3cnc4c(c3N(Cc3cccc(C#N)c3)C2=O)CC(=O)N4)c1F [Example 123, 3-{[3-(2,6-difluoro-3,5-dimethoxyphenyl)-2,8-dioxo-2,3,4,7,8,9-hexahydro-1H-pyrrolo[3′,2′:5,6]pyrido[4,3-d]pyrimidin-1-yl]methyl}benzonitrile] | < 100 nM | < 100 nM | < 100 nM

The next lines start with the values.

IC50 (FGFR1) | IC50 (FGFR2) | IC50 (FGFR3) | SMILES
< 100 nM | < 100 nM | < 100 nM | COc1cc(OC)c(F)c(N2Cc3cnc4[nH]ncc4c3NC2=O)c1F [Example 99, 3-(2,6-difluoro-3,5-dimethoxyphenyl)-1,3,4,7-tetrahydro-2H-pyrazolo[4′,3′:5,6]pyrido[4,3-d]pyrimidin-2-one]
< 100 nM | < 100 nM | < 100 nM | COc1cc(OC)c(F)c(N2Cc3cnc4[nH]nc(CCN5CCOCC5)c4c3N(C)C2=O)c1F [Example 100, 3-(2,6-difluoro-3,5-dimethoxyphenyl)-1-methyl-9-(2-morpholin-4-ylethyl)-1,3,4,7-tetrahydro-2H-pyrazolo[4′,3′:5,6]pyrido[4,3-d]pyrimidin-2-one]
< 100 nM | < 100 nM | < 100 nM | COc1cc(OC)c(Cl)c(N2Cc3cnc4[nH]ncc4c3N(C3CC3)C2=O)c1F [Example 101, 3-(2-chloro-6-fluoro-3,5-dimethoxyphenyl)-1-cyclopropyl-1,3,4,7-tetrahydro-2H-pyrazolo[4′,3′:5,6]pyrido[4,3-d]pyrimidin-2-one]
< 100 nM | < 100 nM | < 100 nM | COc1cc(OC)c(Cl)c(N2Cc3cnc4[nH]ncc4c3N(C3CCC3)C2=O)c1F [Example 102, 3-(2-chloro-6-fluoro-3,5-dimethoxyphenyl)-1-cyclobutyl-1,3,4,7-tetrahydro-2H-pyrazolo[4′,3′:5,6]pyrido[4,3-d]pyrimidin-2-one]
< 100 nM | < 100 nM | < 100 nM | COc1cc(OC)c(F)c(N2Cc3cnc4[nH]ccc4c3NC2=O)c1F [Example 103, 3-(2,6-difluoro-3,5-dimethoxyphenyl)-1,3,4,7-tetrahydro-2H-pyrrolo[3′,2′:5,6]pyrido[4,3-d]pyrimidin-2-one]
< 100 nM | < 100 nM | < 100 nM | COc1cc(OC)c(F)c(N2Cc3cnc4[nH]cc(C)c4c3N(C)C2=O)c1F [Example 104, 3-(2,6-difluoro-3,5-dimethoxyphenyl)-1,9-dimethyl-1,3,4,7-tetrahydro-2H-pyrrolo[3′,2′:5,6]pyrido[4,3-d]pyrimidin-2-one]
< 100 nM | < 100 nM | < 100 nM | COc1cc(OC)c(F)c(N2Cc3cnc4[nH]cc(CC#N)c4c3N(C)C2=O)c1F [Example 105, [3-(2,6-difluoro-3,5-dimethoxyphenyl)-1-methyl-2-oxo-2,3,4,7-tetrahydro-1H-pyrrolo[3′,2′:5,6]pyrido[4,3-d]pyrimidin-9-yl]acetonitrile]
< 100 nM | < 100 nM | < 100 nM | COc1cc(OC)c(Cl)c(N2Cc3cnc4c(c3N(C3CCC3)C2=O)CC(=O)N4)c1F [Example 106, 3-(2-chloro-6-fluoro-3,5-dimethoxyphenyl)-1-cyclobutyl-3,4,7,9-tetrahydro-1H-pyrrolo[3′,2′:5,6]pyrido[4,3-d]pyrimidine-2,8-dione]
< 100 nM | < 100 nM | < 100 nM | COc1cc(OC)c(Cl)c(N2Cc3cnc4[nH]ccc4c3N(c3cnn(C)c3)C2=O)c1F [Example 107, 3-(2-chloro-6-fluoro-3,5-dimethoxyphenyl)-1-(1-methyl-1H-pyrazol-4-yl)-1,3,4,7-tetrahydro-2H-pyrrolo[3′,2′:5,6]pyrido[4,3-d]pyrimidin-2-one]
< 100 nM | < 100 nM | < 100 nM | COc1cc(OC)c(Cl)c(N2Cc3cnc4[nH]ccc4c3N(c3cccnc3)C2=O)c1F [Example 108, 3-(2-chloro-6-fluoro-3,5-dimethoxyphenyl)-1-pyridin-3-yl-1,3,4,7-tetrahydro-2H-pyrrolo[3′,2′:5,6]pyrido[4,3-d]pyrimidin-2-one]
< 100 nM | < 100 nM | < 100 nM | COc1cc(OC)c(F)c(N2Cc3cnc4[nH]ccc4c3N(c3cccnn3)C2=O)c1F [Example 109, 3-(2,6-difluoro-3,5-dimethoxyphenyl)-1-pyridazin-3-yl-1,3,4,7-tetrahydro-2H-pyrrolo[3′,2′:5,6]pyrido[4,3-d]pyrimidin-2-one]
< 100 nM | < 100 nM | < 100 nM | COc1cc(OC)c(F)c(N2Cc3cnc4[nH]c(CN5CCOCC5)cc4c3N(C)C2=O)c1F [Example 110, 3-(2,6-difluoro-3,5-dimethoxyphenyl)-1-methyl-8-(morpholin-4-ylmethyl)-1,3,4,7-tetrahydro-2H-pyrrolo[3′,2′:5,6]pyrido[4,3-d]pyrimidin-2-one]
< 100 nM | < 100 nM | < 100 nM | COc1cc(OC)c(F)c(N2Cc3cnc4[nH]c(CN5CCC(O)CC5)cc4c3N(C)C2=O)c1F [Example 111, 3-(2,6-difluoro-3,5-dimethoxyphenyl)-8-[(4-hydroxypiperidin-1-yl)methyl]-1-methyl-1,3,4,7-tetrahydro-2H-pyrrolo[3′,2′:5,6]pyrido[4,3-d]pyrimidin-2-one]

Source: patent US9611267B2, “Substituted tricyclic compounds as FGFR inhibitors” (Incyte Corporation, priority 2012, dated 2017)
